Assays:
[1] = target: Alpha-2A adrenergic receptor (Homo sapiens) (UniProt P08913); conditions: Compound concentration 10.0 uM
[2] = test system: Receptor-type tyrosine-protein kinase FLT3 (Homo sapiens), P36888 [R834Q]
[3] = target: Muscarinic acetylcholine receptor M4 (Homo sapiens) (UniProt P08173); conditions: Compound concentration 10.0 uM
[4] = target: Mitogen-activated protein kinase 1 (Homo sapiens) (UniProt P28482)
[5] = target: Tyrosine-protein kinase Fes/Fps (Homo sapiens) (UniProt P07332)
[6] = target: Serine/threonine-protein kinase PLK2 (Homo sapiens) (UniProt Q9NYY3)
[7] = target: Death-associated protein kinase 1 (Homo sapiens) (UniProt P53355)
[8] = target: Mitogen-activated protein kinase 10 (Homo sapiens) (UniProt P53779)
[9] = target: Myosin light chain kinase family member 4 (Homo sapiens) (UniProt Q86YV6)
[10] = target: Cyclin-dependent kinase 14 (Homo sapiens) (UniProt O94921)
[11] = target: Mitogen-activated protein kinase kinase kinase kinase 2 (Homo sapiens) (UniProt Q12851)
[12] = test system: Epidermal growth factor receptor (Homo sapiens), P00533 [G719S]
[13] = target: SRSF protein kinase 2 (Homo sapiens) (UniProt P78362)
[14] = target: Serine/threonine-protein kinase 25 (Homo sapiens) (UniProt O00506)
[15] = target: Leukocyte tyrosine kinase receptor (Homo sapiens) (UniProt P29376)
[16] = target: Serine/threonine-protein kinase Sgk1 (Homo sapiens) (UniProt O00141)
[17] = target: NT-3 growth factor receptor (Homo sapiens) (UniProt Q16288)
[18] = target: Serine/threonine-protein kinase Nek1 (Homo sapiens) (UniProt Q96PY6)
[19] = target: Tyrosine-protein kinase JAK3 (Homo sapiens) (UniProt P52333)
[20] = target: Tyrosine-protein kinase ZAP-70 (Homo sapiens) (UniProt P43403)
[21] = target: 5-hydroxytryptamine receptor 2B (Homo sapiens, UniProt P41595); conditions: Compound concentration 10.0 uM
[22] = target: Cyclin-dependent kinase 2 (Homo sapiens) (UniProt P24941)
[23] = target: Serine/threonine-protein kinase Sgk2 (Homo sapiens) (UniProt Q9HBY8)
[24] = test system: Tyrosine-protein kinase ABL1 (Homo sapiens), P00519 [F317I]
[25] = target: SNF-related serine/threonine-protein kinase (Homo sapiens) (UniProt Q9NRH2)
[26] = target: Sigma non-opioid intracellular receptor 1 (Homo sapiens) (UniProt Q99720); conditions: Compound concentration 10.0 uM
[27] = target: Calcium/calmodulin-dependent protein kinase type 1D (Homo sapiens) (UniProt Q8IU85)
[28] = target: Tyrosine-protein kinase TXK (Homo sapiens) (UniProt P42681)
[29] = target: Mast/stem cell growth factor receptor Kit (Homo sapiens) (UniProt P10721)
[30] = target: Ephrin type-A receptor 8 (Homo sapiens) (UniProt P29322)
[31] = target: 5-hydroxytryptamine receptor 1B (Homo sapiens) (UniProt P28222); conditions: Compound concentration 10.0 uM
[32] = target: Tyrosine-protein kinase ABL2 (Homo sapiens) (UniProt P42684)
[33] = target: Tyrosine-protein kinase SYK (Homo sapiens) (UniProt P43405)
[34] = test system: Tyrosine-protein kinase ABL1 (Homo sapiens), P00519 [H396P]
[35] = test system: Receptor-type tyrosine-protein kinase FLT3 (Homo sapiens), P36888 [UNDEFINED MUTATION]
[36] = target: MAP kinase-interacting serine/threonine-protein kinase 1 (Homo sapiens) (UniProt Q9BUB5)
[37] = target: Serine/threonine-protein kinase ULK1 (Homo sapiens) (UniProt O75385)
[38] = target: Serine/threonine-protein kinase WNK3 (Homo sapiens) (UniProt Q9BYP7)
[39] = target: Serine/threonine-protein kinase BRSK2 (Homo sapiens) (UniProt Q8IWQ3)
[40] = target: Serine/threonine-protein kinase haspin (Homo sapiens) (UniProt Q8TF76)
[41] = target: Activated CDC42 kinase 1 (Homo sapiens) (UniProt Q07912)
[42] = target: Mitogen-activated protein kinase kinase kinase 9 (Homo sapiens) (UniProt P80192)
[43] = target: Mitogen-activated protein kinase kinase kinase 15 (Homo sapiens) (UniProt Q6ZN16)
[44] = target: Serine/threonine-protein kinase 38 (Homo sapiens) (UniProt Q15208)
[45] = test system: Fibroblast growth factor receptor 3 (Homo sapiens), P22607 [G697C]
[46] = Compound concentration 100.0 nM
[47] = Compound concentration 1000.0 nM

Sequence of Tyrosine-protein kinase TXK (Homo sapiens) (P42681 whole entry): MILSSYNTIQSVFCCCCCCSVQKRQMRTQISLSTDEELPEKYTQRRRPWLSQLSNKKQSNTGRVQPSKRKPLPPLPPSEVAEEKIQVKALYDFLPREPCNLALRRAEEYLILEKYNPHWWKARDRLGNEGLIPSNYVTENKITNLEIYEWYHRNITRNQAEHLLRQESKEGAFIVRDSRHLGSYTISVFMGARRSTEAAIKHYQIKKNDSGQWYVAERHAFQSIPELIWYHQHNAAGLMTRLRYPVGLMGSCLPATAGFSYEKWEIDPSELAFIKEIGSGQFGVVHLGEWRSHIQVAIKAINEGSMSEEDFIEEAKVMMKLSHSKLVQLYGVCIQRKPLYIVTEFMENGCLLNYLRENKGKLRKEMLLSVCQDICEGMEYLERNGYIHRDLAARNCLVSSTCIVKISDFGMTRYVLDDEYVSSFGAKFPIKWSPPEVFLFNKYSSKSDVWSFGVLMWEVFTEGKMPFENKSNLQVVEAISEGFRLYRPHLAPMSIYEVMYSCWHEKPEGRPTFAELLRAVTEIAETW
Sequence of Alpha-2A adrenergic receptor (Homo sapiens) (P08913 whole entry): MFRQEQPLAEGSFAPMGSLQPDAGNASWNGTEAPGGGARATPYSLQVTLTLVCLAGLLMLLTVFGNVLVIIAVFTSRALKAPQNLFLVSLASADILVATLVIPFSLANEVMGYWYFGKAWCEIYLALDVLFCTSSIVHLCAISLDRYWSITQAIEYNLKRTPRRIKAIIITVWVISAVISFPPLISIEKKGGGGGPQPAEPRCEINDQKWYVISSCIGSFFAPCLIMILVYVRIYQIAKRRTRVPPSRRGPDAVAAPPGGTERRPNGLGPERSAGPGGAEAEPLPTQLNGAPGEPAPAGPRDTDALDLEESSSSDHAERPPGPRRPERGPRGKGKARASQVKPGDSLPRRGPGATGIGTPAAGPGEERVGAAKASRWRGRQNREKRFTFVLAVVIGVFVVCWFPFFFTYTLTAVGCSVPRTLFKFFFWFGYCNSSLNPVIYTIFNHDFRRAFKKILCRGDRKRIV
Sequence of Serine/threonine-protein kinase Sgk2 (Homo sapiens) (Q9HBY8 whole entry): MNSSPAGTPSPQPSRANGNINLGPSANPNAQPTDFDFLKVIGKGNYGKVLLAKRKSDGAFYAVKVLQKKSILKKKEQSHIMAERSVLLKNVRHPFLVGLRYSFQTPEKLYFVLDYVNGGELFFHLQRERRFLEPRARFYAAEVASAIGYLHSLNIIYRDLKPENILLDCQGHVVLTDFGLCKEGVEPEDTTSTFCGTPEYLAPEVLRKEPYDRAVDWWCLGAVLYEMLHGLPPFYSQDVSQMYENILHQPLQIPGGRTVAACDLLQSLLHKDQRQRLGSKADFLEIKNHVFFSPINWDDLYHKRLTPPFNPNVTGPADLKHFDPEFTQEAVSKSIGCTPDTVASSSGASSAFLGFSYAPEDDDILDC
Sequence of Muscarinic acetylcholine receptor M4 (Homo sapiens) (P08173 whole entry): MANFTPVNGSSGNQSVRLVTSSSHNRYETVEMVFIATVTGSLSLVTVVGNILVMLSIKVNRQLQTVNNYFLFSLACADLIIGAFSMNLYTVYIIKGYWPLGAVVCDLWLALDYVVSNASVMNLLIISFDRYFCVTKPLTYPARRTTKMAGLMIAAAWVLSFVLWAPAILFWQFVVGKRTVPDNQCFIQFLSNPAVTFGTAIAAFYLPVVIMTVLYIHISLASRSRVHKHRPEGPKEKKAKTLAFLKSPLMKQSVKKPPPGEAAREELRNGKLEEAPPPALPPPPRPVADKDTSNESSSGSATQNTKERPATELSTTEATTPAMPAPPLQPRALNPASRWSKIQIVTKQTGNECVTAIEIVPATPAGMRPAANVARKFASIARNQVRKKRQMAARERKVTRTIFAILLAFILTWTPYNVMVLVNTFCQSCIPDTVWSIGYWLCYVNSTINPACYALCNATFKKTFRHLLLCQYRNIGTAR
Sequence of Activated CDC42 kinase 1 (Homo sapiens) (Q07912 whole entry, looked up): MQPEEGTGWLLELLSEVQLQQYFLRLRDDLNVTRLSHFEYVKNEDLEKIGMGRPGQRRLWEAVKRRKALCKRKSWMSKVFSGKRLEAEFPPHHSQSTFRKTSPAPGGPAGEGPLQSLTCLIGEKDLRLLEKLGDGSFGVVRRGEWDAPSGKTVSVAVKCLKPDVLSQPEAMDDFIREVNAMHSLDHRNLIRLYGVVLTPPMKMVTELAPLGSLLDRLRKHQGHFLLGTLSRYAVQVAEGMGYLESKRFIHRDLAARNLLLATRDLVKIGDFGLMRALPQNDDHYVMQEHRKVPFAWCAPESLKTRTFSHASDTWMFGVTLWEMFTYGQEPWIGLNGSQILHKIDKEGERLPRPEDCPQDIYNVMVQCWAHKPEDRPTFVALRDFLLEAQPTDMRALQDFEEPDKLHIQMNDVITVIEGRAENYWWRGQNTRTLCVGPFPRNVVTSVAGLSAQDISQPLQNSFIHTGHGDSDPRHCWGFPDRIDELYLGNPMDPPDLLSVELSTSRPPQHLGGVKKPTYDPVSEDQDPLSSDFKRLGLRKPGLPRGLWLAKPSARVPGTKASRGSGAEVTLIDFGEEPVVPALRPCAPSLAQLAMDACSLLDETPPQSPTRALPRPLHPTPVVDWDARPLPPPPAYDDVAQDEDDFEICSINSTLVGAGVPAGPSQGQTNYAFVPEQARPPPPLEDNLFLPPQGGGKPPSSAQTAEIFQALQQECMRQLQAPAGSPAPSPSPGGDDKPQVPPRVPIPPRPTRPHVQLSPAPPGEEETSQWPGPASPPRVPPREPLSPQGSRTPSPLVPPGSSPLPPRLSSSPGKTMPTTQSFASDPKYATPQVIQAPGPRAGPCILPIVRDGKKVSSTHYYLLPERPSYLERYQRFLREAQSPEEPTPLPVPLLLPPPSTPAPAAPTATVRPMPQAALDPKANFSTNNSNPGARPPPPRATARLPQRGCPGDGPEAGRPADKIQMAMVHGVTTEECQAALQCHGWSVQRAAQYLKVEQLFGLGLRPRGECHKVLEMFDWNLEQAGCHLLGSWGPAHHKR
Sequence of Serine/threonine-protein kinase WNK3 (Homo sapiens) (Q9BYP7 whole entry): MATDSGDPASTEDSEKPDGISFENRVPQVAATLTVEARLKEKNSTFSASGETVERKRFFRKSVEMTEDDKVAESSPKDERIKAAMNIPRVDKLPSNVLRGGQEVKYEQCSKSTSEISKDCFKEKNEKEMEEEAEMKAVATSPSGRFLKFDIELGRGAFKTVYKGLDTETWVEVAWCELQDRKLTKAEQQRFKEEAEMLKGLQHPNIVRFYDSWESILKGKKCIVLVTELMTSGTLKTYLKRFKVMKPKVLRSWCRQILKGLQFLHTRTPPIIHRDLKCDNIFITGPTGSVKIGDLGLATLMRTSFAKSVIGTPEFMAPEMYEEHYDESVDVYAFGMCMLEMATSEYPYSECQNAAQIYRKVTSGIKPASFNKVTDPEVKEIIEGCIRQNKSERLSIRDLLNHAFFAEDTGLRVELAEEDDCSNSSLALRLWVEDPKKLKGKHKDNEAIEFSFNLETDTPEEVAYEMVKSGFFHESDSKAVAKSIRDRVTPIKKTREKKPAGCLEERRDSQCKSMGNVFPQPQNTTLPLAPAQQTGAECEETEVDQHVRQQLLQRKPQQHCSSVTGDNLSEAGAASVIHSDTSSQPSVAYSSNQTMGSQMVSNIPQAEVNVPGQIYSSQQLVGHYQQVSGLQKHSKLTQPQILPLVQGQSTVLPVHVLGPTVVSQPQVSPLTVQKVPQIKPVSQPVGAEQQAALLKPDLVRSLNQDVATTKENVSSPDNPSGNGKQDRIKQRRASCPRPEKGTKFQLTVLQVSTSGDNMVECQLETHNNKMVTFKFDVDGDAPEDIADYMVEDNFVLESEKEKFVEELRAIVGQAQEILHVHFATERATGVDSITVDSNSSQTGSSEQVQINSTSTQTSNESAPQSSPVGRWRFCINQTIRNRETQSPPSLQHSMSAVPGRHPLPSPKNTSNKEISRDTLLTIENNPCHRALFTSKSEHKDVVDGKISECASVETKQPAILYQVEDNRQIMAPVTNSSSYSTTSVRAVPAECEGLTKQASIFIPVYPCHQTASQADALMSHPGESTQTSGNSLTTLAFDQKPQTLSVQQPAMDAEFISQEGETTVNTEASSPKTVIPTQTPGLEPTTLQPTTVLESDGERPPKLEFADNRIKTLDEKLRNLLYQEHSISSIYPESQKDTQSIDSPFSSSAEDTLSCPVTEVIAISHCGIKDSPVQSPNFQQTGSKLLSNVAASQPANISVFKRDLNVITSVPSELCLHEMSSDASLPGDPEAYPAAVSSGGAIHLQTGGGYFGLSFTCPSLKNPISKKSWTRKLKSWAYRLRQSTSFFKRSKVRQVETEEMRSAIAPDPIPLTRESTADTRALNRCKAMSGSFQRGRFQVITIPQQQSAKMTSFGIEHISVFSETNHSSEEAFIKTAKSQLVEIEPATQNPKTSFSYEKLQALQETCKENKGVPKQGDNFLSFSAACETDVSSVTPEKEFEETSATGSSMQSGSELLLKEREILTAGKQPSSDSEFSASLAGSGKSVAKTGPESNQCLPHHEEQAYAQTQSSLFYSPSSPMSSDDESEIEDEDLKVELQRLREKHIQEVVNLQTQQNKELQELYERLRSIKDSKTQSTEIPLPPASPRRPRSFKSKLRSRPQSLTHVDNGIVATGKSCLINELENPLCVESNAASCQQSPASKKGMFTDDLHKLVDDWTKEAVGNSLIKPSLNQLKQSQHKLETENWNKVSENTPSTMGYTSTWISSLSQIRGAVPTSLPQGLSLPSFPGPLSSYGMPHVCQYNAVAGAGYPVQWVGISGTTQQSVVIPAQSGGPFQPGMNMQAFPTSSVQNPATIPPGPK
Sequence of 5-hydroxytryptamine receptor 1B (Homo sapiens) (P28222 whole entry): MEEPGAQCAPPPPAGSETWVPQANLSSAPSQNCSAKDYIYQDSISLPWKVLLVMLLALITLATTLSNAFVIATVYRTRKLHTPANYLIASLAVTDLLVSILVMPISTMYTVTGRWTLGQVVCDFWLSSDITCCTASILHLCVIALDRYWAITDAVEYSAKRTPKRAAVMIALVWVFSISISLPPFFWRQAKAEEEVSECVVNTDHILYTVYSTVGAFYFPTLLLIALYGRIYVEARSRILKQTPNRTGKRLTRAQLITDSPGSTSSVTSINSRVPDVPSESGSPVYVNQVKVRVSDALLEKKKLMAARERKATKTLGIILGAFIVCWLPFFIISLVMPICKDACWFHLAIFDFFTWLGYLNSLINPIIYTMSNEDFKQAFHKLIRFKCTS

Cc1cc(C)c(-n2ccn3nc(-c4cccnc4)cc23)cc1NC(=O)c1cc(C#N)cc(S(F)(F)(F)(F)F)c1 [BAY-826]
active: residual activity [15, 46] 32.8% | residual activity [43, 46] 48.8%
inactive: inhibition [1] 11.1% | residual activity [2, 46] 62.3% | inhibition [3] 14.9% | residual activity [4, 46] 88.1% | residual activity [5, 46] 84.6% | residual activity [6, 46] 83.3% | residual activity [7, 46] 94.1% | residual activity [8, 46] 100% | residual activity [9, 46] 100% | residual activity [10, 46] 100% | residual activity [11, 46] 53.1% | residual activity [12, 46] 94.8% | residual activity [13, 46] 60.1% | residual activity [14, 46] 79.1% | residual activity [16, 46] 100% | residual activity [17, 46] 60.4% | residual activity [18, 46] 100% | residual activity [19, 46] 95.3% | residual activity [20, 46] 79.9% | inhibition [21] -7% | residual activity [22, 46] 99% | residual activity [23, 46] 100% | residual activity [24, 46] 76.4% | residual activity [25, 46] 100% | inhibition [26] -4.84% | residual activity [27, 46] 71.6% | residual activity [28, 46] 98.3% | residual activity [29, 46] 76.8% | residual activity [30, 46] 83.5% | inhibition [31] 14.4% | residual activity [32, 46] 67.8% | residual activity [33, 46] 100% | residual activity [34, 46] 69% | residual activity [35, 46] 69.3% | residual activity [36, 46] 83.8% | residual activity [37, 46] 100% | residual activity [38, 46] 61.9% | residual activity [39, 46] 97.5% | residual activity [40, 46] 64% | residual activity [41, 46] 83.6% | residual activity [42, 46] 79.5% | residual activity [44, 46] 80.4% | residual activity [45, 46] 100%

Cc1cc(NC(=O)c2cccc(S(F)(F)(F)(F)F)c2)cc(-n2ccn3nc(-c4cccnc4)cc23)c1 [BAY-309]
inactive: inhibition [1] 15.8% | residual activity [2, 47] 100% | inhibition [3] 14.6% | residual activity [4, 47] 61.7% | residual activity [5, 47] 100% | residual activity [6, 47] 100% | residual activity [7, 47] 100% | residual activity [8, 47] 64.9% | residual activity [9, 47] 91.4% | residual activity [10, 47] 93.8% | residual activity [11, 47] 100% | residual activity [12, 47] 100% | residual activity [13, 47] 100% | residual activity [14, 47] 59.5% | residual activity [15, 47] 100% | residual activity [16, 47] 81.3% | residual activity [18, 47] 100% | residual activity [19, 47] 96.9% | residual activity [20, 47] 100% | residual activity [22, 47] 100% | residual activity [23, 47] 100% | residual activity [24, 47] 100% | residual activity [25, 47] 100% | inhibition [26] 19.3% | residual activity [27, 47] 94.9% | residual activity [28, 47] 56.2% | residual activity [29, 47] 70.3% | residual activity [30, 47] 100% | inhibition [31] 36.8% | residual activity [32, 47] 100% | residual activity [33, 47] 95.5% | residual activity [34, 47] 66.9% | residual activity [35, 47] 100% | residual activity [36, 47] 100% | residual activity [37, 47] 100% | residual activity [38, 47] 100% | residual activity [39, 47] 100% | residual activity [40, 47] 70.9% | residual activity [41, 47] 100% | residual activity [42, 47] 77.7% | residual activity [43, 47] 100% | residual activity [44, 47] 92.3% | residual activity [45, 47] 100%
active: residual activity [17, 47] 27.2% | inhibition [21] 60.4%
